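Grown in 96-well plates, cells were treated for 48 hours with each compound at five concentrations. Insufficient inhibition: endpoint recorded as highest concentration tested. GI50 is the concentration that inhibits growth by half.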 Active and inactive are the calls of the source. Cut-off read from the data, not from the text of the source: active = GI50 up to about 1.1 µM and inactive = higher.
What was measured:
Experiment in all cases: DTP human tumour cell line panel, 48 h
[1] = test system: IGROV-1
[2] = test system: RXF 393
[3] = test system: Malme-3M
[4] = test system: SR
[5] = test system: CAKI-1
[6] = test system: OVCAR-5
[7] = test system: SNB-75
[8] = test system: OVCAR-8
[9] = test system: U-251
[10] = test system: NCI-H460
[11] = test system: HT-29
[12] = test system: M14
[13] = test system: A498
[14] = test system: KM12
[15] = test system: LOX IMVI
[16] = test system: UO-31
[17] = test system: SW-620
[18] = test system: MOLT-4
[19] = test system: SF-268
[20] = test system: T47D

Structure (SMILES)	GI50 [1]	GI50 [2]	GI50 [3]	GI50 [4]	GI50 [5]	GI50 [6]	GI50 [7]	GI50 [8]	GI50 [9]	GI50 [10]	GI50 [11]	GI50 [12]	GI50 [13]	GI50 [14]	GI50 [15]	GI50 [16]	GI50 [17]	GI50 [18]	GI50 [19]	GI50 [20]
CCCCCCCCCCCCC(=O)CCCCC(=O)O	17.3 µM (inactive)	34.9 µM (inactive)	21.6 µM (inactive)	19.5 µM (inactive)	32.5 µM (inactive)	18.2 µM (inactive)	23.4 µM (inactive)	17.5 µM (inactive)	24.4 µM (inactive)	19.4 µM (inactive)	15.8 µM (inactive)	17.5 µM (inactive)	16.8 µM (inactive)	15.8 µM (inactive)	21 µM (inactive)	23.9 µM (inactive)	30.3 µM (inactive)	14.6 µM (inactive)	31.6 µM (inactive)	
CC(C)(C)c1cc(C(CO)OCCOCCO)cc(C(C)(C)C)c1O (centres undefined)	> 100 µM (inactive)	> 100 µM (inactive)	> 100 µM (inactive)		> 100 µM (inactive)	> 100 µM (inactive)	> 100 µM (inactive)	> 100 µM (inactive)	> 100 µM (inactive)		> 100 µM (inactive)	> 100 µM (inactive)	> 100 µM (inactive)	> 100 µM (inactive)	> 100 µM (inactive)	> 100 µM (inactive)	> 100 µM (inactive)		> 100 µM (inactive)	> 100 µM (inactive)
Cc1nc2c(=O)[nH]c(=O)n(C)c2[nH]c1=O.c1ccncc1	> 100 µM (inactive)	> 100 µM (inactive)	> 100 µM (inactive)	> 100 µM (inactive)	> 100 µM (inactive)	> 100 µM (inactive)	> 100 µM (inactive)	> 100 µM (inactive)	> 100 µM (inactive)	> 100 µM (inactive)	> 100 µM (inactive)	> 100 µM (inactive)	> 100 µM (inactive)	> 100 µM (inactive)	> 100 µM (inactive)	> 100 µM (inactive)	> 100 µM (inactive)	> 100 µM (inactive)	> 100 µM (inactive)	
COc1cc2c(cc1OC)[C@@H](C(O)c1ccccc1)NCC2 (some centres undefined)	> 100 µM (inactive)	> 100 µM (inactive)	> 100 µM (inactive)	> 100 µM (inactive)	> 100 µM (inactive)	> 100 µM (inactive)	54.6 µM (inactive)	> 100 µM (inactive)	> 100 µM (inactive)	> 100 µM (inactive)	> 100 µM (inactive)	> 100 µM (inactive)	> 100 µM (inactive)	> 100 µM (inactive)	> 100 µM (inactive)	> 100 µM (inactive)	> 100 µM (inactive)	> 100 µM (inactive)	> 100 µM (inactive)	
C[B@@-]1(c2ccc(C(F)(F)F)cc2)N[C@@H](Cc2ccccc2)C(=O)O1	> 100 µM (inactive)		> 100 µM (inactive)	> 100 µM (inactive)		> 100 µM (inactive)	31.6 µM (inactive)	> 100 µM (inactive)	> 100 µM (inactive)	> 100 µM (inactive)	> 100 µM (inactive)	> 100 µM (inactive)	> 100 µM (inactive)		> 100 µM (inactive)	88.1 µM (inactive)	> 100 µM (inactive)	> 100 µM (inactive)	> 100 µM (inactive)	> 100 µM (inactive)
CC(=O)OCC1OC(OC2CC3C(C)(C)C(OC(C)=O)CC[C@]3(C)C3CCC45CC4(CCC5[C@@H](C)C[C@H](O)C(O)C(C)(C)O)[C@]23C)C(O)C(O)C1O (some centres undefined)	> 10 µM (inactive)	> 10 µM (inactive)	> 10 µM (inactive)		> 10 µM (inactive)	> 10 µM (inactive)	> 10 µM (inactive)	> 10 µM (inactive)	> 10 µM (inactive)	> 10 µM (inactive)	> 10 µM (inactive)	> 10 µM (inactive)	> 10 µM (inactive)	> 10 µM (inactive)	> 10 µM (inactive)	> 10 µM (inactive)	> 10 µM (inactive)	> 10 µM (inactive)	> 10 µM (inactive)	> 10 µM (inactive)
COc1cc2c3c(c1OC)Oc1ccc(cc1)CC1c4c(cc(OC)c(OC)c4Oc4ccc(cc4)CC3N(C)CC2)CCN1C (centres undefined)	13.4 µM (inactive)	12.9 µM (inactive)	20.3 µM (inactive)	2.88 µM (inactive)	90.6 µM (inactive)	56.6 µM (inactive)	21.8 µM (inactive)	20.2 µM (inactive)	15.8 µM (inactive)	18.7 µM (inactive)	15.1 µM (inactive)	18.8 µM (inactive)	0.0169 µM (active)	34.4 µM (inactive)	17.7 µM (inactive)	15 µM (inactive)	15.1 µM (inactive)	21.8 µM (inactive)	27 µM (inactive)	

Reference: ChEMBL document CHEMBL1201862, “PubChem BioAssay data set” (2004)
